From patent publication US12410164B2, “Heterocyclic compounds and medical use thereof” (FONDAZIONE TELETHON, priority 2018, dated 2025)
Entries after “also recorded” stand apart in the source; their conditions may differ.

Key:
Type in all cases: cell-based
[1] = target: T1, F508del-CFTR (Homo sapiens, UniProt P13569, DEL508-508); experiment: Analysis of F508del-CFTR localization by immunofluorescence in CFBE41o− cells; set-up: expressed in transfected cells; host or cells: CFBE41o- cells with expression of F508del-CFTR and HS-YFP (generated as in Sondo et al. 2011); settings: compound 10 μM plus VX-809 1 μM, 24 hr
T1 sequence (P13569 with tags, fused parts or gaps DEL508-508): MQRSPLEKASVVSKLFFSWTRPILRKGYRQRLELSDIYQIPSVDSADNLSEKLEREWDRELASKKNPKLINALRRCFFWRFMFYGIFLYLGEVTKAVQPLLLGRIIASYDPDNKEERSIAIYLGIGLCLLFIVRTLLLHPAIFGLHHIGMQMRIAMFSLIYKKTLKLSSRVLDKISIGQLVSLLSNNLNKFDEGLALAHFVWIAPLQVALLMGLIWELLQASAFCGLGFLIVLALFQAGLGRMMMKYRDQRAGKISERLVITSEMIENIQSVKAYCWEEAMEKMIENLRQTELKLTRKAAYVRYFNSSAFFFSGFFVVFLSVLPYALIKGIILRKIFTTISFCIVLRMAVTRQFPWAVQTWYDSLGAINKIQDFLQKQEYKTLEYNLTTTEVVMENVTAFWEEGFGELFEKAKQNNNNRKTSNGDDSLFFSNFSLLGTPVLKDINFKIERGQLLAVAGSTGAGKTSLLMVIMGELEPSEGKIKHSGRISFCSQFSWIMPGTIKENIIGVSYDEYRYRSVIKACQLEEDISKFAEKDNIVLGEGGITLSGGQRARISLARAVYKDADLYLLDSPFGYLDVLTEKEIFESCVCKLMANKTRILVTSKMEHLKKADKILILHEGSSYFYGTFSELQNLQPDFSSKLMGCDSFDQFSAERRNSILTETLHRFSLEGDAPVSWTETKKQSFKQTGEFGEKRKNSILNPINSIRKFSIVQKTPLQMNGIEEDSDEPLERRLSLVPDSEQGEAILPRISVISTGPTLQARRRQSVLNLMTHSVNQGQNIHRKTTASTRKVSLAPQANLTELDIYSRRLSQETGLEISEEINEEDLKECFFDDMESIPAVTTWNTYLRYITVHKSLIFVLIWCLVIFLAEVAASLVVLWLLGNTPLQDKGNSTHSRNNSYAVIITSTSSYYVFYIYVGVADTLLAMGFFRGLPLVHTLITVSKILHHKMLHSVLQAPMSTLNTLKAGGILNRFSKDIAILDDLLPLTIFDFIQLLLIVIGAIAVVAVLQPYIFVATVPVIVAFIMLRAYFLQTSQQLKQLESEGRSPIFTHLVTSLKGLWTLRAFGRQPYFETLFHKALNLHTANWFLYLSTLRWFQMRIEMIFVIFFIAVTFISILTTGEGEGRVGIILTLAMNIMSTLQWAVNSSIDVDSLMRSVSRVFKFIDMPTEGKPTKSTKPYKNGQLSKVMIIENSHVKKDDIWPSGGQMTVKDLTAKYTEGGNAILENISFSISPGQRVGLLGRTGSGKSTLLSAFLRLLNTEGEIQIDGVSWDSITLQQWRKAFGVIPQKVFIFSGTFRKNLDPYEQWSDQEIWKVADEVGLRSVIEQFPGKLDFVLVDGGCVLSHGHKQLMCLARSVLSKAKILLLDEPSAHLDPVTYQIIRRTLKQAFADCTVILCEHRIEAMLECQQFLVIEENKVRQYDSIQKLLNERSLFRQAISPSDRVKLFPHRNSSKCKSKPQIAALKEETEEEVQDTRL
Procedure: CFBE41o− cells were seeded in a 12-well μ-chamber (81201, Ibidi) at a density of 25.000 cells per well and treated with compounds for 24 hr. Cells were then rinsed with PBS and fixed by adding 100 μl per well of 10% neutral buffered formalin for 5 minutes at room temperature. After 3 washes with 300 μl of PBS, cells were permeabilized with PBS-Triton X-100 0.3% for 5 min, blocked with PBS-BSA 1% for 2 hr, and incubated overnight at 4° C. with 100 μl of primary antibody diluted in blocking solution. The CFTR antibody was ab570 mouse IgG1 (University of North Carolina at Chapel Hill, and Cystic Fibrosis Foundation Therapeutics, see Cui L, et al. J. Mol Biol 2007, 365, 981-994) diluted at 1:250. Following incubation with primary antibody, cells were rinsed three times with PBS and incubated with 100 μl of a solution of secondary goat anti-mouse Alexa Fluor-546 antibodies (Invitrogen A-11030) diluted in PBS-BSA 1% for 1 hour in the dark. After three further washes in PBS, cells were covered with mounting medium and coverslip, and then analysed using a laser-scanning confocal microscope SPE (Leica Microsystems).
As a second type of experiment, the localization of F508del-CFTR protein was evaluated by immunofluorescence. Cells were treated with compounds, then fixed and immunostained with antibodies against CFTR. Images were taken with a confocal microscope.

[2] = system: G542X-CFTR; experiment: HS-YFP assay in null CFBE41o− cells transfected with G542X-CFTR
Procedure: To assess the function and pharmacological sensitivity of G542X-CFTR mutant, inventors used the null version of CFBE41o− cells, i.e. cells with negligible expression of endogenous CFTR and without HS-YFP. Such cells were transiently transfected with the plasmid coding for HS-YFP alone or in combination with: empty plasmid, plasmid coding for wild type CFTR, or plasmid coding for G542X-CFTR. For transfection, cells were seeded in 96-well microplates (30,000 cells/well) in 150 μl of antibiotic-free culture medium. After 24 hours, cells were transfected with the desired plasmids. For each well, 0.2 μg of total plasmid DNA and 0.5 μl of Lipofectamine 2000 (Invitrogen) were first pre-mixed in 50 μl of OPTIMEM (Invitrogen) to generate transfection complexes (60 minutes at room temperature), and then added to the cells. After 24 hour, the complexes were removed by replacement with fresh culture medium. The HS-YFP functional assay was performed after further 24 hours.
To assess the ability of compounds of present invention to improve the rescue of premature stop codon (class I) mutations, we carried out experiments on G542X-CFTR (FIG. 7). Null CFBE41o− cells, devoid of endogenous CFTR expression, were transiently transfected with empty, wild type CFTR or G542X-CFTR plasmids. All cells also received the HS-YFP plasmid to allow functional determination of CFTR-dependent anion transport. […] Where indicated, cells with G542X-CFTR were also treated with G418 (0.5 mg/ml) for 24 hr to induce readthrough of the stop codon mutation, with and without correctors (VX-809 and/or PP028, labeled as VX and PP). […] The activity resulting from wild type CFTR is also shown for comparison.

[3] = target: T1, F508del-CFTR; experiment: Transepithelial short-circuit current in primary bronchial epithelial cells of F508del homozygous CF patient; set-up: endogenous in cells; host or cells: primary bronchial and nasal epithelial cells from CF patients homozygous for F508del
Procedure: The culture and functional study of human primary nasal and bronchial epithelial cells have been described in detail above (Scudieri P, et al. J Physiol. 2012, 590, 6141-6155). Briefly, nasal epithelial cells were taken after informed consent using the “brushing” technique. […] With this mode, the transepithelial potential difference is locked to zero and the resulting current, supplied by the Voltage Clamp is recorded by an AD/DA converter (PowerLab, ADInstruments).
The cells were grown in such a way as to generate differentiated epithelia on porous supports (Snapwell). […] As a channel-protein able to mediate a chloride ion flux, CFTR activity is detected as a transepithelial ionic current. […]

Row | Structure (SMILES) | F508del-CFTR localization [1] | CFTR activity (QR) in G542X-CFTR cells versus G418 alone ([2]; G418 0.5 mg/ml plus VX-809 1 μM or PP028 10 μM) | comparison of co-treatments with G418 in G542X-CFTR cells ([2]; PP028 10 μM versus VX-809 1 μM, each plus G418) | F508del-CFTR activity (current blocked by inh-172) ([3]; compound 10 μM alone, 24 h incubation) | F508del-CFTR activity (current blocked by inh-172) of combination ([3]; compound 10 μM plus VX-809 1 μM, 24 h)
1 | CCOC(=O)c1c(Br)c2c(n1Cc1cccc(C)c1)-c1[nH]c(=O)c(S(=O)(=O)c3ccccc3)cc1CC2 [PP028, Ethyl 3-bromo 1-(3-methylbenzyl)-8-oxo-7-(phenylsulfonyl)-4,5,8,9-tetrahydro-1H-pyrrolo[3,2-h]quinoline-2-carboxylate] | cause appearance of F508del-CFTR at the cell periphery | further increased activity | significantly more effective than VX-809 |  | 
2 | CCOC(=O)c1c(Br)c2c(n1Cc1ccc(C)cc1)-c1[nH]c(=O)c(S(=O)(=O)c3ccccc3)cc1CC2 [PP008, Ethyl 7-(benzenesulfonyl)-3-bromo-1-[(4-methylphenyl)methyl]-8-oxo-4,5,8,9-tetrahydro-1H-pyrrolo[3,2-h]quinoline-2-carboxylate] |  |  |  | significantly increased; also recorded: significant increase in current | significantly greater than the sum of the effects of the individual correctors
